# According to patent US4537893A, “Octahydrothiazolo[4,5-g]quinolines and use as prolactin secretion inhibitors” (Eli Lilly and Company, priority 1984, dated 1985):
# Assays:
# [1] = test system: 6-hydroxydopamine-lesioned rats (nigroneostriatal-lesioned); test: Turning behavior in 6-hydroxydopamine-lesioned rats (Table 2); type: in vivo, rat; conditions: for Average No. of turns per rat: first 15 minutes after end of latency period
# Text: In this test, nigroneostriatal-lesioned rats are employed, as prepared by the procedure of Ungerstedt and Arbuthnott, Brain Res, 24, 485 (1970). A compound having dopamine agonist activity causes the rats to turn in circles contralateral to the side of the lesion. After a latency period, which varies from compound to compound, the number of turns is counted over a 15-minute period.
# prolactin secretion = test: Inhibition of prolactin secretion in reserpine-treated male rats (Table 1); type: in vivo, rat (Sprague-Dawley); conditions: 50 mcg/kg i.p., 1 h after treatment
# Description: As previously stated, the drugs of this invention as represented by formulas I and III above are D-2 dopamine agonists.
# Adult male rats of the Sprague-Dawley strain weighing about 200 g. were housed in an air-conditioned room with controlled lighting (lights on 6 a.m.-8 p.m.) and fed lab chow and water ad libitum. Each rat received an intraperitoneal injection of 2.0 mg. of reserpine in aqueous suspension 18 hours before administration of the test drug. The purpose of the reserpine was to keep the rat prolactin levels uniformly elevated. The compound was dissolved in 10 percent ethanol, and injected intraperitoneally at doses of 0.017, 0.03, 0.17 and 0.3μ moles/kg. The compound was administered at each dose level to a group of 10 rats, and a control group of 10 intact males received an equivalent amount of 10 percent ethanol. One hour after treatment, all rats were killed by decapitation, and 150 μl aliquots of serum were assayed for prolactin.
# The difference between the prolactin level of the treated rats and prolactin level of the control rats, divided by the prolactin level of the control rats, gives the percent inhibition of prolactin secretion attributable to the given dose. Inhibition percentages are given in Tables 1 and 2 below for compounds according to I or III above respectively. […]
structure (smiles),measurement,setting,value
"CCCN1CCC[C@H]2Cc3nc(N4CCCC4)sc3C[C@@H]21 (racemic) [n-Pr, 1-pyrrolidinyl, FB, Trans-(±), Trans-(±)-2-(1-pyrrolidinyl)-5-n-propyl-4,4a,5,6,7,8,8a,9-octahydrothiazolo[4,5-g]quinoline]",% Rats exhibiting turning behaviour,[1]; dose 1000 mcg/kg,100%
same,Average No. of turns per rat,[1]; dose 1000 mcg/kg,67 turns per rat
"CCCN1CCC[C@H]2Cc3nc(Br)sc3C[C@@H]21 (racemic) [n-Pr, Br, 2HCl, Trans-(±), Trans-(±)-2-bromo-5-n-propyl-4,4a,5,6,7,8,8a,9-octahydrothiazolo[4,5-g]quinoline]",% Rats exhibiting turning behaviour,[1]; dose 1000 mcg/kg,100%
same,Average No. of turns per rat,[1]; dose 1000 mcg/kg,42 turns per rat
"CCCN1CCC[C@H]2Cc3ncsc3C[C@@H]21.Cl.Cl (racemic) [n-Pr, H, 2HCl, trans-(±), trans-(±)-5-n-propyl-4,4a,5,6,7,8,8a,9-octahydrothiazolo[4,5-g]quinoline dihydrochloride]",% Rats exhibiting turning behaviour,[1]; dose 20 mcg/kg,25%
same,Average No. of turns per rat,[1]; dose 20 mcg/kg,16 turns per rat
same,% Rats exhibiting turning behaviour,[1]; dose 100 mcg/kg,100%
same,Average No. of turns per rat,[1]; dose 100 mcg/kg,44 turns per rat
same,% Rats exhibiting turning behaviour,[1]; dose 1000 mcg/kg,100%
same,Average No. of turns per rat,[1]; dose 1000 mcg/kg,100 turns per rat
"CCC[N+]1(C)CCCC2Cc3scnc3CC21.I.[I-] (racemic) [n-Pr, H, HI methiodide, trans-(±), trans-(±)-5-n-propyl-4,4a,5,6,7,8,8a,9-octahydrothiazolo[4,5-g]quinolinium methiodide hydroiodide]",Percent Inhibition of Prolactin Secretion,prolactin secretion,30%
"CCCN1CCC[C@H]2Cc3nc(N(C)C)sc3C[C@@H]21 (racemic) [n-Pr, N(CH3)2, 2HCl, trans (±), trans-(±)-2-dimethylamino-5-n-propyl-4,4a,5,6,7,8,8a,9-octahydrothiazolo[4,5-g]quinoline]",% Rats exhibiting turning behaviour,[1]; dose 1000 mcg/kg,100%
same,Average No. of turns per rat,[1]; dose 1000 mcg/kg,62 turns per rat
"Br.Br.CCCN1CCC[C@H]2Cc3nc(N)sc3C[C@@H]21 (racemic) [n-Pr, NH2, 2HBr, trans (±), trans-(±)-2-amino-5-n-propyl-4,4a,5,6,7,8,8a,9-octahydrothiazolo[4,5-g]quinoline dihydrobromide]",% Rats exhibiting turning behaviour,[1]; dose 20 mcg/kg,0%
same,% Rats exhibiting turning behaviour,[1]; dose 100 mcg/kg,78%
same,Average No. of turns per rat,[1]; dose 100 mcg/kg,51 turns per rat
"CCCN1CCC[C@H]2Cc3nc(NC)sc3C[C@@H]21.Cl.Cl (racemic) [n-Pr, NHCH3, 2HCl, trans (±), trans-(±)-2-methylamino-5-n-propyl-4,4a,5,6,7,8,8a,9-octahydrothiazolo[4,5-g]-quinoline dihydrochloride]",% Rats exhibiting turning behaviour,[1]; dose 20 mcg/kg,75%
same,Average No. of turns per rat,[1]; dose 20 mcg/kg,27 turns per rat
same,% Rats exhibiting turning behaviour,[1]; dose 100 mcg/kg,100%
same,Average No. of turns per rat,[1]; dose 100 mcg/kg,80 turns per rat
same,% Rats exhibiting turning behaviour,[1]; dose 1000 mcg/kg,100%
same,Average No. of turns per rat,[1]; dose 1000 mcg/kg,100 turns per rat
"CCCN1CCC[C@H]2Cc3nc(NC(C)=O)sc3C[C@@H]21 (racemic) [n-Pr, NHCOCH3, FB, trans-(±), Trans-(±)-2-acetylamino-5-n-propyl-4,4a,5,6,7,8,8a,9-octahydrothiazolo[4,5-g]quinoline]",% Rats exhibiting turning behaviour,[1]; dose 1000 mcg/kg,100%
same,Average No. of turns per rat,[1]; dose 1000 mcg/kg,91 turns per rat
"CCCN1CCC[C@@H]2Cc3nc(N)sc3C[C@H]21 [n-Pr, NH2, 2HCl, trans-(-), 4aR,8aR-2-amino-5-n-propyl-4,4a,5,6,7,8,8a,9-octahydrothiazolo[4,5-g]quinoline]",% Rats exhibiting turning behaviour,[1]; dose 20 mcg/kg,100%
same,Average No. of turns per rat,[1]; dose 20 mcg/kg,37 turns per rat
same,% Rats exhibiting turning behaviour,[1]; dose 100 mcg/kg,80%
same,Average No. of turns per rat,[1]; dose 100 mcg/kg,102 turns per rat
same,% Rats exhibiting turning behaviour,[1]; dose 1000 mcg/kg,100%
same,Average No. of turns per rat,[1]; dose 1000 mcg/kg,109 turns per rat
